Measurements reported in patent US11352341B2, “2H-indazole derivatives as CDK4 and CDK6 inhibitors and therapeutic uses thereof” (Beta Pharma, Inc., priority 2018, dated 2022).
Structures can show the parent of a compound that is named as a salt.

Tests used:
Assay type in all cases: biochemical
Details in all cases: RB Protein 3 μM substrate, 33P-ATP 1 μM, 10-dose IC50 mode, 3-fold dilution starting at 0.1 μM
CDK6/cyclin D3 = CDK6/cyclin D3 (Homo sapiens, UniProt Q00534); test: Radiometric 33P-ATP filter-binding kinase assay, CDK6/cyclin D3
Sequence of CDK6/cyclin D3 (Q00534 whole entry, species assumed): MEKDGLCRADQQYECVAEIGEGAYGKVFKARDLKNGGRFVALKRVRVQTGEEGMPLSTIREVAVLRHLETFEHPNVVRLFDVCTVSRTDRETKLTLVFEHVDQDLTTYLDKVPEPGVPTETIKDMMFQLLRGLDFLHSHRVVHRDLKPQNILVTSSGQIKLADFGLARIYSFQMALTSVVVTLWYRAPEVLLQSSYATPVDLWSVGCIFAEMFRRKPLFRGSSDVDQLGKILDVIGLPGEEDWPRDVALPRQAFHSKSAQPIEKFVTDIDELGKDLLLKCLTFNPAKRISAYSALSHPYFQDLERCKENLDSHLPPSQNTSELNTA
Sequence of CDK6/cyclin D3 (P30281 whole entry partner, species assumed): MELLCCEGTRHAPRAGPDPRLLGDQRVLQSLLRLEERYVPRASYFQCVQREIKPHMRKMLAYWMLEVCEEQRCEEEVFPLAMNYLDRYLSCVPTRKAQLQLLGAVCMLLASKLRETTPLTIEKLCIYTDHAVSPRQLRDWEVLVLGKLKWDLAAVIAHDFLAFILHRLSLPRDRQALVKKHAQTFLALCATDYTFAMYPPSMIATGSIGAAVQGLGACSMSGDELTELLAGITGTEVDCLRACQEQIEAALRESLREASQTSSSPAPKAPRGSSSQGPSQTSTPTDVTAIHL
Description: (§1) CDK4/cyclin D1, CDK4/cyclin D3, CDK6/cyclin D1, and CDK6/cyclin D3 were added to freshly prepared substrate solution (RB Protein, 3 μM) which was in freshly made reaction buffer (20 mM Hepes (pH 7.5), 10 mM MgCl2, 1 mM EGTA, 0.02% Brij35, 0.02 mg/mL BSA, 0.1 mM Na3VO4, 2 mM DTT, 1% DMSO) and gently mixed, respectively. Compound 1.HCl was tested in a 10-dose IC50 mode with 3-fold dilution starting at 0.1 μM. Compound 1.HCl was prepared and diluted in DMSO and was delivered into the kinases/substrate reaction mixture by Acoustic technology (Echo550; nanoliter range), then incubated for 20 min at room temperature. Then 33P-ATP (1 μM) was added into the reaction mixture to initiate the reaction. The kinase reaction was incubated at room temperature for 2 hours. The reactions were spotted onto P81 ion-exchange paper and radioactivity was detected by filter-binding method. The kinase activity data were expressed as the percent remaining kinase activity in test samples compared to vehicle (Dimethyl Sulfoxide) reactions. […] HCl were determined for all 4 kinases: CDK4/cyclin D1, CDK4/cyclin D3, CDK6/cyclin D1, and CDK6/cyclin D3 and are shown in Table 2, as compared with those of ethylated counterpart, namely N-(5-((4-ethylpiperazin-1-yl)methyl)pyridin-2-yl)-5-fluoro-4-(3-isopropyl-2-methyl-2H-indazol-5-yl)pyrimidin-2-amine, or compound 37. […]

CDK4/cyclin D3 = CDK4/cyclin D3 (Homo sapiens, UniProt P11802); test: Radiometric 33P-ATP filter-binding kinase assay, CDK4/cyclin D3
Sequence of CDK4/cyclin D3 (P11802 whole entry, species assumed): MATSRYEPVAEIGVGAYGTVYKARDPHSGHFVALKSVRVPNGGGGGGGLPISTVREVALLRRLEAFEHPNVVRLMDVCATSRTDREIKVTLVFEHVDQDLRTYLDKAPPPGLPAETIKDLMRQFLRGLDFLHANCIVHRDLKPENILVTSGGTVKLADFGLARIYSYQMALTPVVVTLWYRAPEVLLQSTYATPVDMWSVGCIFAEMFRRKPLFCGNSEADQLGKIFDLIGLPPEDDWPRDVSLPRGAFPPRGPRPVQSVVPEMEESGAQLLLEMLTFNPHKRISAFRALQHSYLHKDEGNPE
Sequence of CDK4/cyclin D3 (P30281 whole entry partner, species assumed): as the sequence (P30281 whole entry partner, species assumed) above
Description: as §1

CDK4/cyclin D1 = CDK4/cyclin D1 (Homo sapiens, UniProt P11802); test: Radiometric 33P-ATP filter-binding kinase assay, CDK4/cyclin D1
Sequence of CDK4/cyclin D1 (P11802 whole entry, species assumed): as the sequence (P11802 whole entry, species assumed) above
Sequence of CDK4/cyclin D1 (P24385 whole entry partner, species assumed): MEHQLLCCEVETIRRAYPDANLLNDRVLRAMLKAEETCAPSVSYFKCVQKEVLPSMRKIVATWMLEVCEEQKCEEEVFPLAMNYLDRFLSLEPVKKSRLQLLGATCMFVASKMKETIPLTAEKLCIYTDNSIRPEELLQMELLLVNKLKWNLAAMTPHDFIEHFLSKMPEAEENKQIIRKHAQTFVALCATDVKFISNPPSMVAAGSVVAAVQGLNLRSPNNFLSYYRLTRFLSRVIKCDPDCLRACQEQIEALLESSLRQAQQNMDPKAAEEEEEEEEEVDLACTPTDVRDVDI
Description: as §1

CDK6/cyclin D1 = CDK6/cyclin D1 (Homo sapiens, UniProt Q00534); test: Radiometric 33P-ATP filter-binding kinase assay, CDK6/cyclin D1
Sequence of CDK6/cyclin D1 (Q00534 whole entry, species assumed): as the sequence (Q00534 whole entry, species assumed) above
Sequence of CDK6/cyclin D1 (P24385 whole entry partner, species assumed): as the sequence (P24385 whole entry partner, species assumed) above
Description: as §1

| IC50 (CDK6/cyclin D3) | IC50 (CDK4/cyclin D3) | IC50 (CDK4/cyclin D1) | IC50 (CDK6/cyclin D1) | Structure (SMILES) |
| --- | --- | --- | --- | --- |
| 25.6 nM | 3.99 nM | 0.705 nM | 1.11 nM | CC(C)c1c2cc(-c3nc(Nc4ccc(CN5CCNCC5)cn4)ncc3F)ccc2nn1C [1•HCl, 5-Fluoro-4-(3-isopropyl-2-methyl-2H-indazol-5-yl)-N-(5-(piperazin-1-ylmethyl)pyridin-2-yl)pyrimidin-2-amine hydrochloride] |
| 5.66 nM | 1.98 nM | 1.47 nM | 23.8 nM | CCN1CCN(Cc2ccc(Nc3ncc(F)c(-c4ccc5nn(C)c(C(C)C)c5c4)n3)nc2)CC1 [Compound 37, N-(5-((4-ethylpiperazin-1-yl)methyl)pyridin-2-yl)-5-fluoro-4-(3-isopropyl-2-methyl-2H-indazol-5-yl)pyrimidin-2-amine] |
